Results reported in patent publication US20110300168A1, “COMPOSITIONS AND METHODS FOR INDUCING AN IMMUNE RESPONSE AGAINST INFLUENZA ANTIGENS” (THE JOHNS HOPKINS UNIVERSITY, priority 2010, published 2011).

What was measured:
Assay type in all cases: cell-based, human
[1] = system: CD8+ T cells; conditions: control donors aged 21-42, wk 0 directly ex vivo, peptide pulsed T2 cells 1:1; positive if SFC greater than 5 per 100000 CD8+ T cells, p<0.05
[2] = system: CD8+ T cells; conditions: for control donors in whom the epitope elicited a response: 12 control donors, aAPC assay, ICS; for geriatric donors with CD8+ T cells responding to the epitope: nine geriatric donors aged 65 and above, IFNγ ICS after 3 weeks of aAPC stimulation
[3] = system: CD8+ T cells

Row | Sequence | number of donors who responded by IFNγ ELISpot [1] | control donors in whom the epitope elicited a response [2] | geriatric donors with CD8+ T cells responding to the epitope [2] | CD8+ T cells specific by IFNγ expression (ICS) ([2]; Donor C1, after 3 weekly aAPC stimulations, restimulated with peptide pulsed T2 cells 1:1) | CD8+ T cells specific for the epitope by A2-Ig dimer staining [3]
1 | IMDKNIILKA (listed as Influenza virus) [NS1123-132, subdominant influenza peptide, pool 2] | One | majority of the donors | Donors E2, E3, E4, and E8 responded | – | –
2 | CVNGSCFTV (listed as Influenza virus) [NA231-239, subdominant influenza peptide, pool 1] | no donor responded | – | – | – | –
3 | SLENFRAYV (listed as Influenza virus) [PA225-233, subdominant influenza peptide, pool 1] | One | – | – | – | –
4 | NMLSTVLGV (listed as Influenza virus) [PB1413-421, subdominant influenza peptide, pool 1] | Four out of the six | majority of the donors | none responded | 37% | 75%
5 | SLCPIRGWAI (listed as Influenza virus) [NA75-84, subdominant influenza peptide, pool 2] | 2 | – | – | – | –
